Laboratory results from patent publication US5567736A, “Use of a choline salt to inhibit fatty liver in patients receiving total parenteral nutrition” (priority 1994, dated 1996).
“And” between values parts separate entries of the source, which are not always exact repeats. Identical values can stand only once.

Tests used:
[1] = Subject #4, pharmacokinetic studies preceding the 6 week choline infusion
[2] = Source text: (§1) Four subjects who were known to have low plasma free choline levels and hepatic steatosis were studied. The subjects included 3 females and 1 person. Two subjects had short bowel syndrome from Crohn's disease, one had radiation enteritis and the fourth had pseudo-obstruction. The subjects had received home TPN for 9.7±4.7 years. Their TPN consisted of 2-3L of 15-25% dextrose solution with 3.0-3.5% amino acids, electrolytes, trace elements and vitamins. All subjects received 19.5±3.7 kcal-kg day actual body weight (range 16-24 kcal/kg/d). This level of support varied between subjects depending upon individual variation in oral intake and intestinal absorption.
(§2) Plasma-free choline level, serum SGOT, SGPT and total cholesterol levels were measured at each visit. Plasma free choline was measured by gas chromatography and mass spectrophotometry (See Jenden DJ, Roch M, Booth RA. Simultaneous measurements of endogenous and deuterium-labeled tracer variants of choline and acetylcholine in subpicomole quantities by gas chromatography spectrometry. Anal Biochem. 55:438-48, 1973; and Freeman JJ, Choi RL, Jenden DJ. Plasma choline: its turnover and exchange with brain choline. J. Neurochem. 24:729-34, 1975.)

[3] = system: hepatic steatosis (liver)
Source text: as §1
Intravenous lipid (Intralipid 20%, Clintec, Deerfield, Ill.) supplied 42.5%±25.7% of daily intravenous caloric intake. […] The TPN solution for each subject included 2.3-5 g of methionine on a daily basis depending upon the total amino acid concentration. The vitamin preparation included 5 μg vitamin B12 and 400 μg folate on a daily basis. All subjects received their TPN nightly as one dose over a period of 10-12 hours.
as §2
Computed tomography (CT) was used as a non-invasive method for quantifying hepatic fat density. Limited non-contrast CT scanning of the liver and spleen was performed using a GE 9800 CT scanner (Milwaukee, Wis.). Multiple contiguous 1-cm axial sections at 1-cm intervals were obtained. Attenuation values for regions of interest in the liver and spleen were generated from multiple representative sections. An average (mean) CT number in Hounsfield units (HU) was then calculated for each organ. Liver density was determined using two currently acceptable methods: a) the average absolute liver CT number, and b) the liver-spleen differential obtained by subtracting the average spleen CT number from the average liver CT number (to correct for interscan variability).
In the normal state, the liver and spleen maintain a fairly constant relationship in terms of relative CT numbers on non-contrast scans. On the main scanner employed at our institution, normal liver density corresponds to approximately 45 HU in absolute terms, and normal liver attenuation values exceed those of the spleen by approximately 8 HU (i.e., a liver-spleen differential of approximately positive 8 HU). Fat has a distinctly lower attenuation than other tissues and thus a distinct appearance on the CT image, as well as a distinctly low CT number in HU. Hepatic density and hepatic steatosis are therefore inversely related. Fatty liver was defined as an absolute CT number </=45 HU, or a liver-spleen differential of </= positive 8.0 HU (with 0-to-positive 8 HU representing borderline fatty change and </=0 HU corresponding to marked fatty infiltration).

[4] = all subjects; baseline 5.2±2.1, normal 11.4+/-3.7 nmol/ml
Source text: as §1, with “females aged 45, 50 and 72 years” for “females”
as §2
The hepatic transaminase levels and cholesterol were determined using standard automated techniques. […]

[5] = system: hepatic transaminase levels; conditions: during the study, except Subject #1; three of four subjects had normal AST and ALT at baseline
Protocol: as §2
(§3) The hepatic transaminase levels and cholesterol were determined using standard automated techniques. Plasma phospholipid bound choline was measured at baseline, at the end of the 6 week nightly choline infusion and 4 weeks later following extraction as described by Folch et al (Folch J, Lees M, Stanley GHS. A simple method for the isolation and purification of total lipids from animal tissue. J. Bio Chem. 226:497-509, 1957.) and hydrolysis as described by Jope and Jenden (Jope RS, Jenden DJ. Choline and phospholipid metabolism and the synthesis of acetylcholine in rat brain. J. Neurosci Res. 4:69-82, 1979.). All blood samples were obtained on the subjects following an overnight fast and 3-5 hours following completion of the TPN.

total serum cholesterol = conditions: during the study
Protocol: as §2, §3

Remark: listed apart in the source
[6] = concentrations as high as 10 g/l
[7] = various TPN nutrient solutions, at least 30 days

## C[N+](C)(C)CCO.[Cl-] [choline chloride]
[1]
  plasma free choline level tolerated without any side effects: ≤ 230 nmol/mL
[2]; Subject #4, from day 30 for remainder of study, 1 g/day
  tolerability after dose increased back to 1 g/day: without complaints
[2]; Subject #4, upon awakening at end of choline infusion, dose decreased from 2 g/day to 1 g/day, then 1 g every other day
  side effect requiring dose adjustment: mild nausea
[2]; subjects other than #4
  side effects or dose adjustment in other subjects: No other subject experienced any side effects or required a dose adjustment
[3]; 4 weeks after choline discontinued, b48 Subject 1 (baseline -47.0), b50 Subject 2 (-0.7), b52 Subject 3 (0.3)
  Liver-spleen Hounsfield unit differential, 4 Wks post choline: 10.6 Hounsfield unit and 15.7 Hounsfield unit and 15.0 Hounsfield unit
[3]; Subject 4 (baseline -9.4), 10 weeks post choline supplementation
  Liver-spleen Hounsfield unit differential, 10 weeks post choline supplementation: -6.3 Hounsfield unit
[3]; concurrent scans, six weeks of choline
  liver-spleen CT number differential, normalisation: assumed a normal or near-normal relationship
[3]; follow-up post-supplementation CT
  hepatic steatosis four weeks after choline was discontinued: had not yet returned to baseline
[3]; initial CT two weeks after choline started vs baseline, 4 subjects, p=0.002
  improvement of CT number difference (liver-spleen subtraction method), average: 20+/-16.5 HU
[3]; one subject (printed #3)
  hepatic steatosis ten weeks after choline supplemented TPN discontinued: had recurred
  liver density ten weeks after choline supplemented TPN discontinued: appeared identical to the baseline CT scan
  liver-spleen differential ten weeks after choline supplemented TPN discontinued: returned to its original, pre-choline supplementation value
[3]; six weeks of choline, all four subjects
  hepatic steatosis during six weeks of choline supplementation: completely resolved in all four subjects
[3]; two weeks after choline supplementation initiated
  liver density at initial CT scan: marked increase in liver density
[3]; two weeks after choline supplementation initiated, all 4 subjects
  hepatic steatosis at initial CT scan: decreased significantly in all 4 subjects
[3]; two weeks of choline, 4 subjects, baseline -14.2+/-22.3 HU, p=0.002
  CT number difference (liver-spleen subtraction method), mean after choline: 8.4 +/-10.3 HU
[4]
  plasma free choline level after one week of choline supplementation: increased into the normal range
[5]
  hepatic transaminase levels: No significant decreases
Total serum cholesterol
  total serum cholesterol: No change
[6]
  effect on amino acid availability of the TPN solution: does not affect
  effect on pH of the TPN solution: does not affect
  stability in TPN solution: at least 30 days
Various TPN nutrient solutions
  stability in various TPN nutrient solutions: at least 30 days
[7]
  effect on TPN solution amino acid concentrations: no adverse affects
  effect on TPN solution pH: no adverse affects
  effect on TPN solution turbidity: no adverse affects
